Laboratory results from PMC9822194, “Chemoselective Synthesis of Mannich Adducts from 1,4-Naphthoquinones and Profile as Autophagic Inducers in Oral Squamous Cell Carcinoma” (Molecules, 2022).
Read-outs that look alike come from different tables or passages of the source.

Experiments:
SCC-4 cells = experiment: MTT cell viability assay, SCC4; type: cell-based, Human; conditions: Homo sapiens, SCC-4, 48 h, read-out: SCC4 IC50
Description: (§1) Cells and reagents. Human SCC-4, SCC-9 and SCC-25 cells, derived from a human oral tongue SCC were obtained from the ATCC (CRL-1624; CRL-1629 and CRL-1628, respectively) and maintained at 1:1 DMEM/F12 (Dulbecco’s modified Eagle medium and Ham’s F12 medium; Gibco, Thermo Fisher, Waltham, MA, USA) supplemented with 10% (v/v) FBS (fetal bovine serum; Invitrogen, Thermo Fisher, Waltham, MA, USA) and 400 ng/mL hydrocortisone (Sigma-Aldrich Co., St. Louis, MO, USA). Primary normal human gingival fibroblasts were obtained from the ATCC (PCS-201-018), maintained in DMEM supplemented with 10% (v/v) FBS, and used in a maximum of 6 passages. Cells were grown in a humidified environment containing 5% CO2 at 37 °C. […] Carboplatin in water (Fauldcarbo®; Libbs Farmacêutica, São Paulo, SP, Brazil) was used as a standard anticancer compound.
(§2) Cell viability assay (cytotoxicity) and stability assay. To assess cell viability, cells were grown in triplicate in 96-well plates (5 × 10^3 cells/well) until confluence when treated with the different compounds as in Machado et al.. Briefly, DMSO in the same concentrations was used as a 100% cell viability control. After 48 h, cells were incubated with 5 mg/mL MTT reagent (3-(4,5-dimethyl-2-thiazolyl)-2,5-diphenyl-2H-tetrazolium bromide) (Sigma-Aldrich Co., St. Louis, MO, USA) for 3.5 h. Formazan crystals were dissolved in MTT solvent (DMSO/methanol 1:1 v/v) and the absorbance at 560 nm was evaluated using an EPOCH microplate spectrophotometer (BioTek Instruments, Winooski, VT, USA) with background absorbance at 670 nm subtracted. Each of the eighteen compounds was tested at six or seven different concentrations, ranging from 0.3 µM to 200 µM in cancer cell lines (SCC-4, SCC-9 and SCC-25) and 0.4 µM to 300 µM in normal primary human gingival fibroblast.
(§3) Statistical analysis, IC50 calculation. IC50 values for MTT assays were obtained by non-linear regression using the GraphPad Prism 5.0 software (GraphPad, San Diego, CA, USA) from at least three independent experiments. Data are presented as means ± SD. A dose-response (inhibitor) vs response curve using the least squares method was used to determine the IC50, SD and R2 of the data. The selectivity index was calculated as S.I. = IC50 of the compound in normal oral fibroblast cells/IC50 of the same compound for each oral cancer cell line (SCC-4, SCC-9 and SCC-25) and the mean was calculated when indicated.

SCC-9 (OSCC cells) = experiment: MTT cell viability assay (cytotoxicity), SCC9; type: cell-based, Human; conditions: for IC50: Homo sapiens, SCC-9, 48 h
Description: as §1, §2, §3

SCC9 cells = experiment: MTT assay with cell death inhibitors (ZVAD, necrostatin-1, 3-MA); type: cell-based, Human; conditions: SCC9, 3-MA 5000 µM
Description: as §2, with “After 48 h, cells were incubated with 5 mg/mL MTT reagent (3-(4,5-dimethyl-2-thiazolyl)-2,5-diphenyl-2H-tetrazolium bromide) (Sigma-Aldrich Co., St.” left out

[1] = system: OSCC cell lines (SCC 4, SCC-9 and SCC-25); experiment: MTT assay, mean over three OSCC cell lines and average selectivity index; type: cell-based, Human
Description: as §2, §3

[2] = system: normal human gingival fibroblasts; experiment: MTT cell viability assay, normal fibroblasts; type: cell-based; conditions: Homo sapiens, Fibroblast, 48 h, read-out: Primary Gengival Fibroblast IC50
Description: as §1, §2, §3

SCC-25 cells = experiment: MTT cell viability assay, SCC25; type: cell-based, Human; conditions: Homo sapiens, SCC-25, 48 h, read-out: SCC25 IC50
Description: as §1, §2, §3

Which results are given for `CC(C)=CC[C@@H](O)C1=CC(=O)c2c(O)ccc(O)c2C1=O` [Shikonin, reference compound]?
IC50 (SCC-4 cells): 1910 nM; IC50 (SCC-9 (OSCC cells); read-out: SCC9 IC50): 1810 nM; IC50 (SCC-9 (OSCC cells); read-out: SCC9—Oral Cancer IC50): 1800 nM; Selective Index (S.I.) (SCC-9 (OSCC cells); IC50 normal oral fibroblasts/IC50 SCC-9): 0.95; Effect of autophagy inhibitor 3-MA on induced cell death (SCC9 cells): reduced cell death; IC50 ([1]; Homo sapiens, read-out: Oral Tumor Cells Mean IC50): 1740 nM; Average S.I. ([1]; average selectivity index over SCC-4, SCC-9, SCC-25 vs normal fibroblasts): 0.98; IC50 [2]: 1720 nM; IC50 (SCC-25 cells): 1500 nM
